The values that follow are results of earlier work, collected in patent US20040053283A1, “Gene 4” (priority 2000, published 2004).

For series [1], the system named is tissue culture model of cerebral ischemia.
Series [2] deals with rat stroke model (middle ear cerebral artery occlusion). Conditions: in vivo.

On to `O=C(O)CCC(CP(=O)(O)O)C(=O)O` (stereo not shown) [2-PNPA, 2-(phosphonomethyl)pentanedioic acid], for which the “protection from cellular injury” value in series [1] (10 μM, tissue culture model of cerebral ischemia) is 85%. In addition, in series [1] (even one hour after the ischemia), the protective effect entry was “significant”. Moreover, the neuronal protection result in series [2] (rat stroke model (middle ear cerebral artery occlusion)) was “high degree of neuronal protection”. In addition, in series [2] (rat stroke model, at levels that produced a high degree of neuronal protection), the tolerability entry is “well tolerated”.
